Test results taken from patent US8629242B2, “Methods of inhibiting calcineurin with ApoE analogs” (Cognosci, Inc., priority 2007, dated 2014).
Where a SMILES comes first, the peptide text is derived from it. [ ]: non-standard residue; d: D form. Aib = CC(C)(N)C(=O)O

Legend:
enriched OPC cultures = assay: Number of mature oligodendrocytes after differentiation of enriched OPC culture; type: cell-based, rat; conditions: 2 μM COG 133, 1 μM COG 112 or 1 μM COG 68 for four days, then six days differentiation without analog
Experimental: FIG. 11. ApoE analogs increase the number of mature oligodendrocytes in culture. ApoE analogs (COG 133, COG 112, and COG 68) were added to enriched OPC culture in proliferation media for four days. Cultures were then differentiated in the absence of the ApoE analogs. Cells were labeled with a GST-π antibody to detect mature oligodendrocytes.
Since COG 112 increased the proliferation of OPCs, we next examined whether the ApoE analogs could also increase the number of mature oligodendrocytes. Enriched OPC cultures were prepared as described for the previous experiment. 2 μM COG 133 (SEQ ID NO: 1), 1 μM COG 112 (SEQ ID NO: 5), or 1 μM COG 68 (Ac-[…]-NH2; SEQ ID NO: 7) were added to the enriched OPC cultures in proliferation media for four days. The media was then replaced with differentiation medium without the ApoE analogs for an additional six days. Cells were labeled with a GST-π antibody to detect mature oligodendrocytes.

Calcineurin = target: T1, Calcineurin (Homo sapiens, UniProt Q08209); assay: Cell-free calcineurin phosphatase activity assay (BioMol kit); type: biochemical; conditions: various concentrations
T1 construct: purchased BioMol AK-804
Experimental: FIG. 14. ApoE analogs bind directly to calcineurin and inhibit its activity. […] (B) Immunoprecipitation of human brain lysate with a biotin-COG 133 conjugate. Lane 1=markers; lane 2=clear bead; lane 3=biotin-COG 133 bead conjugate; and lane 4=10 μg lysate. (C) Immunoprecipitation of different glial cultures with a biotin-COG 133 conjugate. Lane 1=markers; lane 2=astrocyte; lane 3=microglia; and lane 4=oligodendrocyte precursor cells (OPC). Blots in B and C were probed for calcineurin (PP2B).
Calcineurin activity was measured in a cell-free in vitro assay in the presence of various concentrations of COG 133 (SEQ ID NO: 1), COG 112 (SEQ ID NO: 5), COG 68 (SEQ ID NO: 7), COG 125 (Ac-AS(Aib)LRKL(Aib)KR—COOH; SEQ ID NO: 8), or antennapedia (antp), the prefix peptide for COG 112. […] Using a BioMol Calcineurin Phosphatase Activity Kit (Cat. #AK-804), the assay was conducted according to manufacturer's instructions. […] This inhibition of calcineurin activity by ApoE analogs is mediated by a direct interaction of the ApoE analog with the phosphatase.

microglia cell line BV2 = assay: LPS-induced NO and TNF-α release in BV2 microglia; type: cell-based, murine; conditions: LPS 10 ng/ml, 24 hours
Experimental: FIG. 16. […] Series concentrations of ApoE analogs were added to culture medium together with LPS (10 ng/ml). 24 hours later, culture medium was collected for measurement of NO by Griess assay or TNF-α by ELISA. […] ApoE analogs (10 μM) were added to the cell medium of human macrophage U937 5 minutes prior to PMA+LPS treatment. The release of superoxide in culture medium was measured by Luminol assay kit (Calbiochem).
The murine microglia cell line BV2 was used as the first screening platform to compare the potency of ApoE analogs in anti-inflammatory activity. In response to LPS, BV2 produces amounts of reactive radical NO and inflammatory cytokines, such as TNF-α and IL-6. We stimulated the cells with LPS (10 ng/ml) in the presence of several concentrations of each of the ApoE analogs. We measured NO in medium by Griess assay and TNF-α by ELISA 24 hours after LPS stimulation of the cells. The IC50 value was calculated for each of the ApoE analogs.

[1] = tested on: macrophage cell line U937; assay: Superoxide release in PMA+LPS-treated U937 macrophages; type: cell-based, human; conditions: 10 μM, IFN-γ-differentiated cells
Experimental: FIG. 16. ApoE analogs suppress the release of nitric oxide (A) and TNF-α (B) in LPS-treated BV2 microglia cells. Series concentrations of ApoE analogs were added to culture medium together with LPS (10 ng/ml). 24 hours later, culture medium was collected for measurement of NO by Griess assay or TNF-α by ELISA. (C) ApoE analogs inhibit superoxide formation in PMA+LPS-treated human macrophage cell line U937. ApoE analogs (10 μM) were added to the cell medium of human macrophage U937 5 minutes prior to PMA+LPS treatment. The release of superoxide in culture medium was measured by Luminol assay kit (Calbiochem).
To determine the anti-oxidant effect of the different ApoE analogs, the human macrophage cell line U937 was differentiated with IFN-γ (40 U/ml) for 4 days and treated with phorbol-12-myristate-13-acetate (PMA) and LPS with or without ApoE analogs (10 μM). The release of superoxide in the medium was measured by Luminol Superoxide Assay kit (Calbiochem, CA).

Compound	number of mature oligodendrocytes (GST-π) (enriched OPC cultures)	inhibition of calcineurin activity (Calcineurin)	activity in suppression of microglia activation (NO by Griess assay, TNF-α by ELISA) (microglia cell line BV2)	superoxide release [1]
CC(=O)N[C@@H](CC(C)C)C(=O)N[C@@H](CCCNC(=N)N)C(=O)N[C@H](C(=O)N[C@@H](CCCNC(=N)N)C(=O)N[C@@H](CC(C)C)C(=O)N[C@@H](C)C(=O)N[C@@H](CO)C(=O)N[C@@H](Cc1c[nH]cn1)C(=O)N[C@@H](CC(C)C)C(=O)N[C@@H](CCCNC(=N)N)C(=O)N[C@@H](CCCCN)C(=O)N[C@@H](CC(C)C)C(=O)N[C@@H](CCCNC(=N)N)C(=O)N[C@@H](CCCCN)C(=O)N[C@@H](CCCNC(=N)N)C(=O)N[C@@H](CC(C)C)C(=O)N[C@@H](CC(C)C)C(N)=O)C(C)C [COG 133]	significantly increased the number of mature oligodendrocytes	dose-dependent inhibition	–	–
CC(=O)NC(=N)NCCC[C@H](NC(=O)[C@H](CCCCN)NC(=O)[C@H](CCCNC(=N)N)NC(=O)[C@H](CC(C)C)NC(=O)[C@H](CCCCN)NC(=O)[C@H](CCCNC(=N)N)NC(=O)[C@H](CC(C)C)NC(=O)C(C)(C)NC(=O)[C@H](CO)NC(=O)[C@H](C)NC(=O)[C@H](CC(C)C)NC(=O)[C@H](CCCNC(=N)N)NC(=O)[C@@H](NC(=O)[C@H](CCCNC(=N)N)NC(=O)[C@H](CC(C)C)NC(C)=O)C(C)C)C(=O)N[C@@H](CC(C)C)C(=O)N[C@@H](CC(C)C)C(N)=O [COG 345, acetyl-LRVRLAS-Aib-LRKLRK(acetyl-Arg)LL-amide] (Ac-LRVRLAS[Aib]LRKLRKR(Ac)LL-NH2)	–	–	clearly superior to that of COG 133	significantly inhibited superoxide release
Ac-RQIKIWFQNRRMKWKKCLRVRLASHLRKLRKRLL-NH2 [COG 112]	significantly increased the number of mature oligodendrocytes	dose-dependent inhibition	clearly superior to that of COG 133	significantly inhibited superoxide release
